Measurements taken from patent US7745410B2, “Bladder tumor-targeting peptide and use thereof” (Kyungpook National University Industry-Academica …, priority 2006, dated 2010).
Positions of bridges follow the written chain, without caps; N, C: chain ends. No end group written: not given here. *: point of attachment. FITC = O=C1OC2(c3ccc(O)cc3Oc3cc(O)ccc32)c2ccc(NC(=S)*)cc21

Assays:
bladder tumor tissue = test: In vivo targeting after injection into the bladder via the urethra (BBN-induced bladder tumor); parameters: species or system rat; settings: 50 μM injected into bladder via urethra, 30 minutes, FIG. 5
Source text: FIG. 5 is a set of photographs showing the binding specificity to bladder tumor tissue of the peptide according to the present invention having FITC attached thereto, after injecting the peptide into the mouse bladder in which a bladder tumor is induced, wherein the green fluorescence represents the peptide according to the present invention, and the red fluorescence represents an epithelial cell stained with cytokeratin;
(§1) First, 4 week-aged F344 rats (n=10) (Hyochang Science) were fed with water containing 0.05% of N-butyl-N-4-hydroxybutylnitrosoamine (BBN) for 8 weeks to induce a bladder tumor.
50 μM of FITC-CSNRDARRC peptide described in Example <2-2> was injected into the bladder of each of the mouse, in which a bladder tumor was induced, and a normal mouse via the urethra, followed by reaction for 30 minutes. Then, the bladder was removed from each mouse and a frozen section was provided. The frozen section was stained by H&E staining according to a method known to one skilled in the art. […] Then, 1:200 dilution of a secondary antibody, to which a red fluorescence material (Alexa red) was bonded, was allowed to react with the cells at room temperature for 1 hour, followed by treatment with a mounting solution containing DAPI. Next, the cells were observed by using a fluorescence microscope.

[1] = test system: cells separated from the urine of a patient suffering from bladder tumor; test: Binding of FITC-peptide to cells collected from urine (fluorescence microscopy); type: cell-based, human; settings: 4° C., 1 hour; FIG. 7
Protocol: FIG. 7 is a set of fluorescence microscopic photographs showing the binding specificity of the target peptide having FITC attached thereto to cells separated from the urine of a patient suffering from bladder tumor, wherein the green fluorescence represents the peptide according to the present invention, and the blue fluorescence represents the nucleus stained with DAPI;
Urine of a patient that was in the hospital for surgical operation on the bladder tumor was centrifuged with 1500 rpm at 4° C. for 10 minutes to collect cells. As a control, bladder cells, collected from the urine of a normal human in the same manner as described above, were used. Next, the collected cells were allowed to react with the FITC-peptide 1 described in Example <2-2> and the control peptide (SEQ ID NO: 10) at 4° C. for 1 hour. After staining the cells with DAPI, the cells were transferred onto a slide and observed with a fluorescence microscope. Meanwhile, the cells were stained with the PAP staining method (Papanicolau and Marshall, Science 101:519, 1945), currently used as a method for the diagnosis of bladder tumor, to observe the presence of tumor cells.

[2] = test system: malignant melanoma tissue; test: In vivo targeting after tail vein injection in mouse with induced malignant melanoma; settings: final 50 μM in blood, 2 hours
Protocol: k: microscopic photograph of malignant melanoma of mouse injected with the peptide according to the present invention and stained with H & E; and
l: fluorescence microscopic photograph of cancer tissue of mouse injected with the peptide according to the present invention and stained with DAPI; and
(§2) The FITC-peptide 1 was injected into the mouse, in which a bladder tumor induced, and into the normal mouse via the tail venous to a final concentration of 50 μM in the blood, followed by circulation for 2 hours. Additionally, to determine whether the peptide according to the present invention specifically targets the bladder tumor in vivo, a malignant melanoma was induced in a mouse (Hyochang Science), and the peptide according to the present invention was injected into the mouse in the same manner as described above. Then, the bladder was removed from each mouse to prepare a frozen section, which, in turn, was stained by H&E staining or cytokeratin staining. Each section was observed by using a fluorescence microscope.

[3] = test system: human bladder tumor tissue; test: Binding of FITC-peptide to frozen tissue sections (fluorescence microscopy); settings: 10 μM peptide, 4° C., 1 hour, FIG. 4
Protocol: FIG. 4 is a set of photographs showing the binding specificity to the frozen section of human bladder tumor cells of the peptide according to the present invention having FITC attached thereto, wherein the green fluorescence represents the peptide according to the present invention, and the blue fluorescence represents the nucleus stained with DAPI;
Next, 10 μM of the peptide, FITC-CSNRDARRC, was allowed to react with the tissues at 4° C. for 1 hour. As a control, a peptide (SEQ ID NO: 10; CDASRRNRC), which had the same number of amino acids as the peptide according to the present invention but included a randomly modified amino acid sequence between both terminal cystein residues, was used. After the reaction of each peptide, a mounting solution (molecular Probe) containing a nucleus staining reagent, DAPI (4′,6-diamidino-2-phenylindole), was treated on the surface of the slide according to the method known to one skilled in the art. Then, the slide was observed by using a fluorescence microscope.

bladder tumor cells = test: In vivo targeting after tail vein injection (BBN-induced bladder tumor); parameters: species or system rat; settings: final 50 μM in blood
Source text: FIG. 6 is a set of photographs showing the in vivo targeting capability of the peptide according to the present invention, after injecting the peptide having FITC attached thereto into the tail venous vessel of a mouse in which a bladder tumor is induced, wherein the green fluorescence represents the peptide according to the present invention, and the red fluorescence represents an epithelial cell stained with cytokeratin;
as §1, §2

[4] = test system: BBN-induced bladder tumor; test: In vivo micro PET imaging after intravenous injection of radiolabeled peptides; parameters: species or system rat; settings: 14 hours after intravenous injection; tumor-bearing F344 rats; 380 μCi peptide 1, 313 μCi control; FIG. 8
Protocol: For radioiodination, each of CSNRDARRC peptide (SEQ ID NO: 1) and CDASRRNRC control peptide (SEQ ID NO: 10) was added with a tyrosine residue at the N-terminus during synthesis. […] The synthetic peptide was labeled with [131I]NaI by using Iodo-bead (Pierce Biochemical Co., Rockford, Ill.). The bead was washed with phosphate-buffered saline (PBS), pH 7.2 and dried on filter paper for 5 min. The washed bead was added to a solution of [131I]NaI (100 MBq) in PBS. After shaking at RT for 5 min, the peptide solution (14 mg in 20 mL distilled water) was added to the [131I]NaI solution containing Iodo-bead. [131I]NaI (T1/2=[…]) was purchased from Korea Institute of Radiology and Science (KIRAMS; Seoul, Korea). The reaction was allowed to proceed for 15 min at RT by gentle shaking and then stopped by the removal of the bead out of the reaction tube. The 131I-incorporation yield measured by radio-TLC was 47% (silica, 10% ammonium acetate:methanol=30:70). […] The radiochemical purity of final solution was measured to be over 81.2%. […]
In contrast, uptake of the control peptide (313 μCi) was minimal (FIG. 8 D-F). These findings indicate that the radioactivity shown in rat bladder is not a non-specific one from urinary excretion of the radiolabeled peptides but a specific one from the uptake of the peptide by bladder tumor tissues.

[5] = test system: bladder tumor cells separated from the human bladder tissue; test: Binding of phage clones to bladder tumor cells and normal bladder cells from patient tissue (phage titer); type: cell-based; settings: phage clones of Example 1
Protocol: FIG. 3 is a graph showing the binding specificity of six positive phage clones to the bladder tumor cells separated from the human bladder tissue and to the normal bladder cells;
Bladder tumor cells were separated from fresh bladder tumor tissue obtained from six patients with a bladder tumor by transurethral resection of bladder tumor, according to a known method. The cells were measured for the specific binding of the six individual phage clones (SEQ ID NO: 1 to SEQ ID NO: 6) described in Example 1 to the tumor cells and compared their binding to that of the normal cells. First, bladder tumor tissue and normal bladder tissue were pulverized finely to provide cell suspensions, and the six phages (5×10^9 pfu) were allowed react with the cells at 4° C. for 2 hours. A non-recombinant phage, T7 415-1b phage, was used as a control phage. Next, tumor cells and the normal epithelial cells were separated from the cell suspensions formed from the tumor tissue and the normal tissue by using magnetic beads coated with epithelial cell antibodies, in the same manner as described in Example <1-2>. Then, phages were detected from the cells and measured for the titer of phages, in the same manner as described in Example <1-2>.

Substance	fluorescence in epithelial cells at the site where a bladder tumor was induced (bladder tumor tissue)	fluorescence in epithelial cells covering the normal bladder (bladder tumor tissue; normal animal)	fluorescence in control cells (urine of a normal human) [1]	fluorescence/binding in urine cells of the patient suffering from bladder tumor [1]	detection of peptide in malignant melanoma tissue [2]	binding to bladder tumor tissue [3]	detection of peptide in lung tissue of a normal mouse (bladder tumor cells; 2 hours)	detection of peptide in normal bladder cells (bladder tumor cells; 2 hours, normal animal)	targeting of bladder tumor cells after injection into the blood (bladder tumor cells; circulation 2 hours, FIG. 6)	uptake in bladder on micro PET images [4]	binding capability among the six phage clones [5]
FITC-CSNRDARRC ({FITC}-CSNRDARRC; disulfide 1-9) [FITC-peptide 1, peptide 1 with FITC (fluorescein isothiocyanate) linked to its amino terminal]	green fluorescence was observed	no fluorescence was observed	fluorescence was not detected	green fluorescence was observed	not detected	bonded specifically	not detected	not detected	targets the bladder tumor cells		
CDASRRNRC (YCDASRRNRC; disulfide 2-10; numbers in words are those of the source; also: 124I radiolabel) [control peptide, radioiodinated with added N-terminal tyrosine for PET, reference compound]				could not be bonded		substantially showed no binding				minimal	
CSNRDARRC (disulfide 1-9; not fully specified (N-terminus)) [peptide 1]											highest binding capability
